Molecules are shown by their SMILES. The source made the active and inactive calls. How the calls were made is not given here.

The test system of the series is CCRIS mutagenicity, Ames/micronucleus/aberration tests. The series is described as follows: CCRIS mutagenicity studies.
Where [1] appears, read: Test System: AMES SALMONELLA TYPHIMURIUM, Strain/Indicator: TA98, Metabolic Activation: RAT, LIVER, S-9, AROCLOR 1254, Method: STANDARD PLATE.
Setting [2] is: Test System: AMES SALMONELLA TYPHIMURIUM, Strain/Indicator: TA100, Metabolic Activation: RAT, LIVER, S-9, AROCLOR 1254, Method: STANDARD PLATE.
Where [3] appears, read: Test System: AMES SALMONELLA TYPHIMURIUM, Strain/Indicator: TA98, Metabolic Activation: NONE, Method: STANDARD PLATE.
The mark [4] stands for this setting: Test System: AMES SALMONELLA TYPHIMURIUM, Strain/Indicator: TA100, Metabolic Activation: NONE, Method: STANDARD PLATE.
The mark [5] stands for this setting: Test System: AMES SALMONELLA TYPHIMURIUM, Strain/Indicator: TA98, Metabolic Activation: NONE, Method: PREINCUBATION
[6] abbreviates: Test System: AMES SALMONELLA TYPHIMURIUM, Strain/Indicator: TA100, Metabolic Activation: NONE, Method: PREINCUBATION
[7] abbreviates: Test System: AMES SALMONELLA TYPHIMURIUM, Strain/Indicator: TA1535, Metabolic Activation: NONE, Method: PREINCUBATION
The mark [8] stands for this setting: Test System: AMES SALMONELLA TYPHIMURIUM, Strain/Indicator: TA1537, Metabolic Activation: NONE, Method: PREINCUBATION
[9] abbreviates: Test System: AMES SALMONELLA TYPHIMURIUM, Strain/Indicator: TA1538, Metabolic Activation: NONE, Method: PREINCUBATION

For the compound `Cc1cc2c(c3ccc4ccccc4c13)CCC2=O`, the mutagenic call is “active; positive” under setting [1]; “inactive; negative” (Test System: AMES SALMONELLA TYPHIMURIUM, Strain/Indicator: TA100, Metabolic Activation: RAT, LIVER, MICROSOMES, 15,16-DIHYDRO-11-METHYL-17(H)-CYCLOPENTA[A] PHENANTHREN-17-ONE, Method: STANDARD PLATE); “active; positive” (Test System: AMES SALMONELLA TYPHIMURIUM, Strain/Indicator: TA100, Metabolic Activation: RAT, LIVER, MICROSOMES, BENZO[A]PYRENE, Method: STANDARD PLATE); “inactive; negative” (Test System: AMES SALMONELLA TYPHIMURIUM, Strain/Indicator: TA100, Metabolic Activation: RAT, LIVER, MICROSOMES, CLOFIBRATE, Method: STANDARD PLATE); “inactive; negative” (Test System: AMES SALMONELLA TYPHIMURIUM, Strain/Indicator: TA100, Metabolic Activation: RAT, LIVER, MICROSOMES, DEXAMETHASONE, Method: STANDARD PLATE); “inactive; negative” (Test System: AMES SALMONELLA TYPHIMURIUM, Strain/Indicator: TA100, Metabolic Activation: RAT, LIVER, MICROSOMES, ISONIAZID, Method: STANDARD PLATE). Further, the mutagenic call is “inactive; negative” (Test System: AMES SALMONELLA TYPHIMURIUM, Strain/Indicator: TA100, Metabolic Activation: RAT, LIVER, MICROSOMES, PHENOBARBITONE, Method: STANDARD PLATE); “inactive; negative” (Test System: AMES SALMONELLA TYPHIMURIUM, Strain/Indicator: TA100, Metabolic Activation: RAT, LIVER, MICROSOMES, Method: STANDARD PLATE); “active; positive” under setting [2]; “active; positive” (Test System: AMES SALMONELLA TYPHIMURIUM, Strain/Indicator: TA1538, Metabolic Activation: RAT, LIVER, S-9, AROCLOR 1254, Method: STANDARD PLATE).
Turning to `O=[N+]([O-])c1c(O)ccc2c1[nH]c1ccccc12`, the mutagenic call runs as follows: under setting [3], “inactive; negative”; under setting [1], “inactive; negative”.
Consider `Oc1ccc(Cl)cc1`, for which the mutagenic call (Test System: AMES SALMONELLA TYPHIMURIUM, Strain/Indicator: TA97, Metabolic Activation: NONE, Method: STANDARD PLATE) was “inactive; negative”; the mutagenic call (Test System: AMES SALMONELLA TYPHIMURIUM, Strain/Indicator: TA97, Metabolic Activation: RAT, LIVER, S-9, AROCLOR 1254, Method: STANDARD PLATE) is “active; positive”; the mutagenic call under setting [3] is “inactive; negative”; the mutagenic call under setting [1] was “active; positive”; the mutagenic call (Test System: AMES SALMONELLA TYPHIMURIUM, Strain/Indicator: TA98, Metabolic Activation: S-9, Method: STANDARD PLATE) is “active; positive”; the mutagenic call under setting [4] was “inactive; negative”. The mutagenic call was “active; positive” under setting [2]; “inactive; negative” (Test System: AMES SALMONELLA TYPHIMURIUM, Strain/Indicator: TA100, Metabolic Activation: S-9, Method: STANDARD PLATE); “inactive; negative” (Test System: AMES SALMONELLA TYPHIMURIUM, Strain/Indicator: TA104, Metabolic Activation: NONE, Method: STANDARD PLATE); “inactive; negative” (Test System: AMES SALMONELLA TYPHIMURIUM, Strain/Indicator: TA104, Metabolic Activation: RAT, LIVER, S-9, AROCLOR 1254, Method: STANDARD PLATE).
Take `C1CSCSC1`: the mutagenic call is “active; positive” under setting [3], “inactive; negative” under setting [1], “active; positive” under setting [4] and “active; positive” under setting [2].
With `O=S(=O)(O)Oc1ccc2ccc3cc4ccccc4c4ccc1c2c34`, the mutagenic call runs as follows: under setting [5], “active; positive”; (Test System: AMES SALMONELLA TYPHIMURIUM, Strain/Indicator: TA98, Metabolic Activation: RAT, LIVER, S-9, AROCLOR 1254, Method: PREINCUBATION) “active; positive”; (Test System: AMES SALMONELLA TYPHIMURIUM, Strain/Indicator: TA98, Metabolic Activation: RAT, LUNG, S-9, Method: PREINCUBATION) “active; positive”.
With `CO/N=C(\C(=O)N[C@@H]1C(=O)N2C(C(=O)OCOC(=O)C(C)(C)C)=C(/C=C\c3scnc3C)CS[C@H]12)c1csc(N)n1`, the mutagenic call runs as follows: under setting [5], “inactive; negative”; (Test System: AMES SALMONELLA TYPHIMURIUM, Strain/Indicator: TA98, Metabolic Activation: RAT, LIVER, S-9, PHENOBARBITAL AND 5,6-BENZOFLAVONE, Method: PREINCUBATION) “inactive; negative”; under setting [6], “inactive; negative”; (Test System: AMES SALMONELLA TYPHIMURIUM, Strain/Indicator: TA100, Metabolic Activation: RAT, LIVER, S-9, PHENOBARBITAL AND 5,6-BENZOFLAVONE, Method: PREINCUBATION) “inactive; negative”; under setting [7], “inactive; negative”; (Test System: AMES SALMONELLA TYPHIMURIUM, Strain/Indicator: TA1535, Metabolic Activation: RAT, LIVER, S-9, PHENOBARBITAL AND 5,6-BENZOFLAVONE, Method: PREINCUBATION) “inactive; negative”. Further, the mutagenic call reads like this: under setting [8], “inactive; negative”; (Test System: AMES SALMONELLA TYPHIMURIUM, Strain/Indicator: TA1537, Metabolic Activation: RAT, LIVER, S-9, PHENOBARBITAL AND 5,6-BENZOFLAVONE, Method: PREINCUBATION) “inactive; negative”; under setting [9], “inactive; negative”; (Test System: AMES SALMONELLA TYPHIMURIUM, Strain/Indicator: TA1538, Metabolic Activation: RAT, LIVER, S-9, PHENOBARBITAL AND 5,6-BENZOFLAVONE, Method: PREINCUBATION) “inactive; negative”; (Test System: E. COLI, Strain/Indicator: WP2 UVRA, Metabolic Activation: NONE, Method: PREINCUBATION) “inactive; negative”; (Test System: E. COLI, Strain/Indicator: WP2 UVRA, Metabolic Activation: RAT, LIVER, S-9, PHENOBARBITAL AND 5,6-BENZOFLAVONE, Method: PREINCUBATION) “inactive; negative”. Besides, the mutagenic call is, setting by setting: (Test System: MOUSE LYMPHOMA, Strain/Indicator: L5178Y (TK+/TK-), Metabolic Activation: NONE) “inactive; negative”; (Test System: MOUSE LYMPHOMA, Strain/Indicator: L5178Y (TK+/TK-), Metabolic Activation: RAT, LIVER, S-9, PHENOBARBITAL AND 5,6-BENZOFLAVONE) “inactive; negative”; (Test System: UDS RAT STOMACH MUCOSA CELLS, Strain/Indicator: THY INCORP, Metabolic Activation: NONE, Method: IN VIVO-IN VITRO) “inactive; negative”.
Turning to `CCOP(=O)(OCC)Oc1ccc([N+](=O)[O-])cc1`, the mutagenic call is, setting by setting: (End Point: IN VITRO MICRONUCLEUS, Test System: HUMAN NEWBORN UMBILICAL CORD BLOOD, Metabolic Activation: NONE) “active; positive only at highest dose”; (End Point: IN VITRO MICRONUCLEUS, Test System: HUMAN PERIPHERAL LYMPHOCYTES (MALE/FEMALE ADULT), Metabolic Activation: NONE) “active; positive only at highest dose”; (End Point: In vitro micronucleus, Test System: Human peripheral blood lymphocytes, Metabolic Activation: None) “active; positive. pon1 qq, but not pon1 rr individuals exhibited significant increase in”; under setting [3], “active; positive”; (Test System: AMES SALMONELLA TYPHIMURIUM, Strain/Indicator: TA98, Metabolic Activation: RAT, LIVER, S-9, Method: STANDARD PLATE) “active; positive”; under setting [4], “inactive; negative”. Besides, under “Test System: AMES SALMONELLA TYPHIMURIUM, Strain/Indicator: TA100, Metabolic Activation: RAT, LIVER, S-9, Method: STANDARD PLATE”, the mutagenic call was “active; positive”.
On to `O=C(O)Cc1ccc([N+](=O)[O-])cc1`, for which the mutagenic call is “active; positive” under setting [5]; “active; positive” under setting [6]; “inactive; negative” under setting [7]; “inactive; negative” under setting [8]; “inactive; negative” under setting [9].
On to `Nc1ccn([C@@H]2CS[C@H](CO)O2)c(=O)n1`, for which the mutagenic call reads like this: (Test System: Human TK6 Lymphoblastoid Cells, Strain/Indicator: HPRT, Metabolic Activation: None, Method: Standard Plate) “active; positive”; (Test System: Human TK6 Lymphoblastoid Cells, Strain/Indicator: TK, Metabolic Activation: None, Method: Standard Plate) “active; positive”; (Test System: Mouse lymphoma, Strain/Indicator: L5178Y (tk+/tk-), Metabolic Activation: None, Method: Suspension/plate) “inactive; negative”; (Test System: Mouse lymphoma, Strain/Indicator: L5178Y (tk+/tk-), Metabolic Activation: Rat, Liver, S-9, Aroclor 1254, Method: Suspension/plate) “inactive; negative”.
